pKi: −log10 of the molar value. Like-named read-outs stand apart in the source and are kept apart here.
Target: T1, NK1 -receptor (substance P-receptor) (Homo sapiens, UniProt P25103)
T1 construct: intact human lymphoblastoma cells (IM-9) which express NK1 -receptors; endogenous in cells; host or cells: IM-9 human lymphoblastoma cells
Test: NK1-receptor affinity: displacement of 125I labelled substance P on intact human lymphoblastoma cells (IM-9)
Type: binding
Conditions: intact human lymphoblastoma cells (IM-9) expressing NK1-receptors
Protocol: The receptor affinity for the NK1 -receptor (substance P-receptor) was determined on intact human lymphoblastoma cells (IM-9) which express NK1 -receptors, and the displacement of ^125 I labelled substance P was measured.

T1 sequence (P25103 whole entry): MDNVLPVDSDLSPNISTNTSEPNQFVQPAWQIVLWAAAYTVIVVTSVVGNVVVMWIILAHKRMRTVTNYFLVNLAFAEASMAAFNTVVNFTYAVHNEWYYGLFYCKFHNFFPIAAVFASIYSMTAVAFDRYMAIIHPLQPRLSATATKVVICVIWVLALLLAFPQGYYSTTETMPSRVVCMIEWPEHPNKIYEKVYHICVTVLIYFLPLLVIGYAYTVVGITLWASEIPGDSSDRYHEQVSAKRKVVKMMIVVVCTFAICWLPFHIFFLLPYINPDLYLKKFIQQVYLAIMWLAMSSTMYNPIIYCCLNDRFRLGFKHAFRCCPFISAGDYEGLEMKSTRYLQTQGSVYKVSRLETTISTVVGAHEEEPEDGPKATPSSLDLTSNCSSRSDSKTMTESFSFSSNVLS

Row | SMILES | pKi (read-out: Ki) | pKi (Ki)
1 | COc1ccccc1C(CNC(=O)Cc1cc(C(F)(F)F)cc(C(F)(F)F)c1)N1CCN(C2CCCCCC2)CC1 (stereo not drawn) [Example 68, N-[2-(2-Methoxyphenyl)-2-(4-cycloheptylpiperazine-1-yl)-ethyl]-2-(3,5-bistrifluoromethyl-phenyl)-acetamide] | 8.52 | –
2 | FC(F)(F)c1cc(CNCC(c2ccccc2)N2CCN(c3ccccc3)CC2)cc(C(F)(F)F)c1 (stereo not drawn) [Example 3, 3,5-Bistrifluoromethylbenzyl-[2-phenyl-2-(4-phenylpiperazine-1-yl)-ethyl]-amine] | 6.10 | –
3 | COc1ccccc1C(CNCc1cc(C(F)(F)F)cc(C(F)(F)F)c1)N1CCN(C(C)C)CC1 (stereo not drawn) [Example 34, 3,5-Bistrifluoromethylbenzyl-[2-(2-methoxyphenyl)-2-(4-(2-propyl)-piperazine-1-yl)-ethyl]-amine] | 7.42 | –
4 | COc1ccccc1C(CNCc1cc(C(F)(F)F)cc(C(F)(F)F)c1)N1CCC(c2c[nH]c3ccccc23)CC1 (stereo not drawn) [Example 97, 3,5-Bistrifluoromethylbenzyl-(2-(2-methoxyphenyl)-2-(4-(3-indolyl)-piperidine-1-yl)-ethyl]-amine] | 6.52 | –
5 | COc1ccccc1C(CNCc1cc(C(F)(F)F)cc(C(F)(F)F)c1)N1CCCC(C)C1 (stereo not drawn) [Example 81, 3,5-Bistrifluoromethylbenzyl-[2-(2-methoxyphenyl)-2-(3-methylpiperidine-1-yl)-ethyl]-amine] | 7.05 | –
6 | COc1ccccc1C(CNCc1cc(C(F)(F)F)cc(C(F)(F)F)c1)N1CCN(CCO)CC1 (stereo not drawn) [Example 57, 3,5-Bistrifluoromethylbenzyl-[2-(2-methoxyphenyl)-2-(4-(2-hydroxyethyl)-piperazine-1-yl)-ethyl]-amine] | 7.19 | –
7 | COc1ccccc1C(CNC(=O)c1cc(C(F)(F)F)cc(C(F)(F)F)c1)N1CCN(C2CCCCC2)CC1 (stereo not drawn) [Example 67, N-[2-(2-Methoxyphenyl)-2-(4-cyclohexylpiperazine-1-yl)-ethyl]-3,5-bistrifluoromethylbenzamide] | 7.85 | –
8 | COc1ccccc1C(CNC(=O)Nc1cc(C(F)(F)F)cc(C(F)(F)F)c1)N1C2CCCC1CC2 (stereo not drawn) [Example 176, N-3,5-Bistrifluoromethylphenyl-N'-[2-(2-methoxyphenyl)-2-(nortropan-8-yl)-ethyl]-urea] | 7.04 | –
9 | COc1ccccc1C(CNCc1cc(C(F)(F)F)cc(C(F)(F)F)c1)N1CC(C)CC(C)C1 (stereo not drawn) [Example 83, 3,5-Bistrifluoromethylbenzyl-[2-(2-methoxyphenyl)-2-(3,5-dimethylpiperidine-1-yl)-ethyl]-amine] | 6.68 | –
10 | COc1ccccc1C(CNCc1cc(C(F)(F)F)cc(C(F)(F)F)c1)N1CCC(C2CCCCC2)CC1 (stereo not drawn) [Example 89, 3,5-Bistrifluoromethylbenzyl-[2-(2-methoxyphenyl)-2-(4-cyclohexylpiperidine-1-yl)-ethyl]-amine] | 7.10 | –
11 | CN1CCN(C(CNCc2cc(C(F)(F)F)cc(C(F)(F)F)c2)c2ccccc2)CC1 (stereo not drawn) [Example 30, 3,5-Bistrifluoromethylbenzyl-[2-phenyl-2-(4-methylperazine-1-yl)-ethyl]-amine] | 7.05 | –
12 | FC(F)(F)c1cc(CNCC(c2ccccc2)N2CCOCC2)cc(C(F)(F)F)c1 (stereo not drawn) [Example 96, 3,5-Bistrifluoromethylbenzyl-(2-phenyl-2-morpholine-4-yl-ethyl)-amine] | 6.73 | –
13 | COc1ccccc1C(CNCc1cc(C(F)(F)F)cc(C(F)(F)F)c1)N1CCN(C2CCCCC2)CC1 (stereo not drawn) [Example 39, 3,5-Bistrifluoromethylbenzyl-[2-(2-methoxyphenyl)-2-(4-cyclohexylpiperazine-1-yl)-ethyl]-amine] | 7.80 | –
14 | COc1ccccc1C(CNCc1cc(C(F)(F)F)cc(C(F)(F)F)c1)N1CCN(C)CC1 (stereo not drawn) [Example 31, 3,5-Bistrifluoromethylbenzyl-[2-(2-methoxyphenyl)-2-(4-methylpiperazine-1-yl)-ethyl]-amine] | 7.03 | –
15 | COc1ccccc1C(CNC(=O)Cc1ccc(Cl)cc1)N1CCN(C2CCCCC2)CC1 (stereo not drawn) [Example 61, N-[2-(2-Methoxyphenyl)-2-(4-cyclohexylpiperazine-1-yl)-ethyl]-2-(4-chlorophenyl)-acetamide] | – | 6.07
16 | COc1ccccc1C(CNCCc1cc(C(F)(F)F)cc(C(F)(F)F)c1)N1CCCCC1 (stereo not drawn) [Example 79, 2-(3,5-Bistrifluoromethylphenyl)-2'-(2-methoxyphenyl)-2'-piperidine-1-yl-diethylamine] | 7.34 | –
17 | CCCN1CCN(C(CNCc2cc(C(F)(F)F)cc(C(F)(F)F)c2)c2ccccc2OC)CC1 (stereo not drawn) [Example 32, 3,5-Bistrifluoromethylbenzyl-[2-(2-methoxyphenyl)-2-(4-(1-propyl)-piperazine-1-yl)-ethyl]-amine] | 7.64 | –
18 | COc1ccccc1C(CNCc1cc(C(F)(F)F)cc(C(F)(F)F)c1)N1CCN(C2CCCC2)CC1 (stereo not drawn) [Example 35, 3,5-Bistrifluoromethylbenzyl-[2-(2-methoxyphenyl)-2-(4-cyclopentylpiperazine-1-yl)-ethyl]-amine] | 7.80 | –
19 | COc1ccccc1C(CNCc1cc(C(F)(F)F)cc(C(F)(F)F)c1)N1CCN(C2CCCCCC2)CC1 (stereo not drawn) [Example 53, 3,5-Bistrifluoromethylbenzyl-[2-(2-methoxyphenyl)-2-(4-cycloheptylpiperazine-1-yl)-ethyl]-amine] | 8.30 | –
20 | COc1ccccc1C(CN(Cc1cc(C(F)(F)F)cc(C(F)(F)F)c1)C(C)=O)N1CCN(c2ccccc2)CC1 (stereo not drawn) [Example 2, N-3,5-Bistrifluoromethylbenzyl-N-[2-(2-methoxyphenyl)-2-(4-phenylpiperazine-1-yl)-ethyl]-acetamide] | 6.04 | –
21 | COc1ccccc1C(CNC(=O)Cc1ccc(Cl)c(Cl)c1)N1CCN(C2CCCCC2)CC1 (stereo not drawn) [Example 62, N-[2-(2-Methoxyphenyl)-2-(4-cyclohexylpiperazine-1-yl)-ethyl]-2-(3,4-dichlorophenyl)-acetamide] | 6.56 | –

Now from value to compound, other results behind:

Row | pKi (read-out: Ki) | SMILES | pKi (Ki)
22 | 7.55 | COc1ccccc1C(CNC(=O)Nc1cc(C(F)(F)F)cc(C(F)(F)F)c1)N1CCN(C(C)C)CC1 (stereo not drawn) [Example 110, N-3,5-Bistrifluoromethylphenyl-N'-[2-(2-methoxyphenyl)-2-(4-(2-propyl)piperazin-1-yl)-ethyl]-urea] | –
23 | 6.22 | O=C(NCC(c1ccccc1)N1CCN(c2ccccc2)CC1)Nc1cc(C(F)(F)F)cc(C(F)(F)F)c1 (stereo not drawn) [Example 123, N-3,5-Bistrifluoromethylphenyl-N'-[2-phenyl-2-(4-phenylpiperazine-1-yl)-ethyl]-urea] | –
24 | 7.11 | CN1CCN(C(CNC(=O)Nc2cc(C(F)(F)F)cc(C(F)(F)F)c2)c2ccccc2)CC1 (stereo not drawn) [Example 105, N-3,5-Bistrifluoromethylphenyl-N'-[2-phenyl-2-(4-methylpiperazine-1-yl)-ethyl]-urea] | –
25 | 6.67 | COc1ccccc1C(CNC(=O)Nc1cc(C(F)(F)F)cc(C(F)(F)F)c1)N1CCN(C(C)c2ccccc2)CC1 (stereo not drawn) [Example 151] | –
26 | 6.54 | COc1ccccc1C(CNC(=O)Nc1cc(C(F)(F)F)cc(C(F)(F)F)c1)N1CCN(Cc2ccc3c(c2)OCO3)CC1 (stereo not drawn) [Example 148, N-3,5-Bistrifluoromethylphenyl-N'-[2-(2-methoxyphenyl)-2-(3,4-methylenedioxybenzyl-piperazine-1-yl)-ethyl]-urea] | –
27 | 6.39 | O=C(NCC(c1ccccc1)N1CCN(C2CCCCC2)CC1)Nc1ccccc1Cl (stereo not drawn) [Example 113, N-2-Chlorophenyl-N'-[2-phenyl-2-(4-cyclohexylpiperazine-1-yl)-ethyl]-urea] | –
28 | 6.05 | COc1ccccc1C(CNC(=O)Nc1cc(C(F)(F)F)cc(C(F)(F)F)c1)N1CCC(C2CCCCC2)CC1 (stereo not drawn) [Example 171, N-3,5-Bistrifluoromethylphenyl-N'-[2-(2-methoxyphenyl)-2-(4-cyclohexylpiperidin-1-yl)-ethyl]-urea] | –
29 | 6.82 | COc1ccccc1C(CNC(=O)Nc1cc(C(F)(F)F)cc(C(F)(F)F)c1)N1CCCCC1 (stereo not drawn) [Example 166] | –
30 | 6.64 | COc1ccccc1C(CNC(=O)Nc1cc(C(F)(F)F)cc(C(F)(F)F)c1)N1CCC(Cc2ccccc2)CC1 (stereo not drawn) [Example 175, N-3,5-Bistrifluoromethylphenyl-N'-[2-(2-methoxyphenyl)-2-(4-benzylpiperidin-1-yl)-ethyl]-urea] | –
31 | 6.94 | O=C(NCC(c1ccccc1)N1CCN(Cc2ccccc2)CC1)Nc1cc(C(F)(F)F)cc(C(F)(F)F)c1 (stereo not drawn) [Example 146] | –
32 | 6.32 | COc1ccccc1C(CNC(=O)Nc1cc(C(F)(F)F)cc(C(F)(F)F)c1)N1CCN(c2ccccn2)CC1 (stereo not drawn) [Example 156] | –
33 | 7.92 | COc1ccccc1C(CNC(=O)Nc1cc(C(F)(F)F)cc(C(F)(F)F)c1)N1CCN(C2CCCC2)CC1 (stereo not drawn) [Example 111, N-3,5-Bistrifluoromethylphenyl-N'-[2-(2-methoxyphenyl)-2-(4-cyclopentylpiperazine-1-yl)-ethyl]-urea] | –
34 | 6.00 | O=C(NCC(c1ccccc1)N1CCCCC1)Nc1cc(C(F)(F)F)cc(C(F)(F)F)c1 (stereo not drawn) [Example 167] | –
35 | 6.91 | COc1ccccc1C(CNC(=O)Nc1cc(C(F)(F)F)cc(C(F)(F)F)c1)N1CCN(CCC2CCCCC2)CC1 (stereo not drawn) [Example 121, N-3,5-Bistrifluoromethylphenyl-N'-[2-(2-methoxyphenyl)-2-(4-(2-cyclohexylethyl)piperazine-1-yl)-ethyl]-urea] | –
36 | 6.19 | COc1ccccc1C(CNC(=O)Nc1cc(C(F)(F)F)cc(C(F)(F)F)c1)N1CCN(c2ccccc2)CC1 (stereo not drawn) [Example 142] | –
37 | 6.60 | COc1ccccc1C(CNC(=O)Nc1cc(C(F)(F)F)cc(C(F)(F)F)c1)N1CCN(C)CC1 (stereo not drawn) [Example 107, N-3,5-Bistrifluoromethylphenyl-N'-[2-(2-methoxyphenyl)-2-(4-methylpiperazin-1-yl)-ethyl]-urea] | –
38 | 6.05 | COc1ccccc1C(CNC(=O)Nc1cc(C(F)(F)F)cc(C(F)(F)F)c1)N1CCCC(C)C1 (stereo not drawn) [Example 169] | –
39 | 6.14 | COc1ccccc1C(CNC(=O)Nc1cc(C(F)(F)F)cc(C(F)(F)F)c1)N1CCN(CCc2ccccc2)CC1 (stereo not drawn) [Example 150, N-3,5-Bistrifluoromethyl-phenyl-phenyl-N'-[2-(2-methoxyphenyl-2-(4-2-phenylethyl)-piperazine-1-yl)-ethyl]-urea] | –

From patent US6191135A, “Neurokinin antagonists” (Boehringer Ingelheim KG, priority 1994, dated 2001)
